The record followed here is PMC11396667, “Design, Synthesis, and Anticancer and Antibacterial Activities of Quinoline-5-Sulfonamides” (Molecules, 2024).

One test deals with S. aureus ATCC 29213. The experiment in a line: MTT assay of bacterial respiratory activity. It counts as cell-based, Staphylococcus aureus. Conditions: for S. aureus Respiration Inhibition: 24 h, at the lowest multiple of MIC giving at least 70% inhibition; for Conc.: lowest multiple of MIC with at least 70% inhibition of respiratory activity / Conc.: the same concentration as multiple of MBC: S. aureus ATCC 29213. From the text:
The MTT assay can be used to assess cell growth by measuring respiration. Bacterial cell respiratory activity (which is ultimately reflected in their viability) of less than 70% after exposure to the MIC values for each test compound is considered as a positive result for this test. This low level of cellular oxidative metabolism indicates inhibition of cell growth by inhibition of respiration. The lowest multiples of the MIC values by which inhibition of S. aureus ATCC 29213 viability [%] greater than 70% was achieved are shown in Table 4. […] Therefore, the antibacterial activity of the discussed compounds cannot be explained solely on the basis of respiration inhibition, so it is very difficult to draw a conclusion regarding the actual mechanism of action, since 8-HQs are multi-target agents, i.e., they affect several different targets at once (as discussed in the section dedicated to anticancer activity), which subsequently leads to the death of the treated resistant microorganisms.
Compounds were prepared as previously stated and diluted in CaMH broth for S. aureus to achieve the desired final concentrations. S. aureus bacterial suspension in sterile distilled water at 0.5 McFarland was diluted 1:3. Inocula were added to each well by multi-inoculator. Diluted mycobacteria in broth free from inhibiting compounds were used as the growth control. All compounds were prepared in duplicate. Plates were incubated at 37 °C for 24 h for S. aureus. After the incubation period, 10% well volume of MTT (3-(4,5-dimethylthiazol-2-yl)-2,5-diphenyltetrazolium bromide) reagent (Sigma) was mixed into each well and incubated at 37 °C 1 h for S. aureus. Then, 100 µL of 17% sodium dodecyl sulphate in 40% dimethylformamide was added to each well. The plates were read at 570 nm. The absorbance readings from the cells grown in the presence of the tested compounds were compared with uninhibited cell growth to determine the relative percent inhibition. The percent inhibition was determined through MTT assay. The percent viability is calculated through the comparison of a measured value and that of the uninhibited control: % viability = OD570E/OD570P × 100, where OD570E is the reading from the compound-exposed cells, while OD570P is the reading from the uninhibited cells (positive control). Cytotoxic potential is determined by a percent viability of <70% [81, 82].
On the technique in general: Formazan colour is commonly taken as a measure of viable cells.

In test [1] the test system is vancomycin-resistant E. faecalis VRE 342B. As to the kind of experiment: MIC, microtitration broth method, VRE1. The class given is cell-based. Conditions: Enterococcus faecalis, 24 h, 37 °C, BHI broth. The text has this:
Since there is a general decrease in immunity during the treatment of oncological patients, i.e., patients are more susceptible to infectious diseases, it is advantageous if anticancer agents show antimicrobial properties at the same time. Therefore, the effects of the compounds were also investigated against Gram-positive bacteria. For this purpose, the susceptible collection strains of aerobic Staphylococcus aureus ATCC 29213 and facultatively aerobic Enterococcus faecalis ATCC 29212 and resistant clinical isolates of methicillin-resistant S. aureus (MRSA) SA 3202, SA 630 carrying the mecA gene, and vancomycin-resistant isolates of E. faecalis (VRE) 342B, 368, and 725B carrying the vanA gene were selected. Thus, the selection of the studied bacterial strains was adopted following the CLSI ([…]) international reference methodologies.
The in vitro antibacterial activity of the synthesized compounds was evaluated against representatives of multidrug-resistant bacteria, […] clinical isolates of methicillin-resistant S. aureus: clinical isolates of human origin, MRSA SA 3202, and MRSA SA 630 (National Institute of Public Health, Prague, Czech Republic), carrying the mecA gene. These two clinical isolates were classified as vancomycin-susceptible (but with a higher MIC of vancomycin equal to 2 μg/mL (VA2-MRSA). Vancomycin- and methicillin-susceptible S. aureus ATCC 29213 and vancomycin-susceptible Enterococcus faecalis ATCC 29212, obtained from the American Type Culture Collection, were used as the reference and quality control strains. Three vanA gene-carrying vancomycin-resistant isolates of E. faecalis (VRE 342B, VRE 368, VRE 725B) (Department of Infectious Diseases and Microbiology, Faculty of Veterinary Medicine, University of Veterinary Sciences Brno, Czech Republic) were provided by Oravcova et al..
The minimum inhibitory concentrations (MICs) were evaluated by the microtitration broth method according to the CLSI, with some modifications. The compounds were dissolved in DMSO (Sigma, St. Louis, MO, USA) to obtain a concentration of […] and diluted in a microtitration plate in an appropriate medium, i.e., Cation-Adjusted Mueller–Hinton Broth (CaMH, Oxoid, Basingstoke, UK) for staphylococci, and Brain Heart Infusion Broth (BHI, Oxoid) for enterococci to reach the final concentration of 256–0.125 µg/mL. Microtiter plates were inoculated with test microorganisms so that the final concentration of bacterial cells was 10^5. Ampicillin, oxacillin, and ciprofloxacin (Sigma) were used as reference drugs. A drug-free control and a sterility control were included. The plates were incubated for 24 h at 37 °C for staphylococci and enterococci. […] The experiments were repeated three times.

The test system of test [2] is MDA-MB-231 (human breast adenocarcinoma) cells. The experiment in a line: WST-1 cell viability assay, MDA-MB-231. It counts as cell-based. Conditions: Homo sapiens, MDA-MB-231; WST-1, 72 h exposure, ± SD, n = 6. How it is done:
(§1) The synthesized compounds were tested using three cancer cell lines—human amelanotic melanoma (C-32), human breast adenocarcinoma (MDA-MB-231), and human lung adenocarcinoma (A549)—and, for comparison, normal human dermal fibroblasts (HFF-1). The WST-1 (water-soluble tetrazole salt) assay was used to evaluate the effect of the synthesized compounds on the viability of cultured cells.
(§2) Compounds were evaluated for their antiproliferative activity using three cultured cell lines: C-32 (human amelanotic melanoma, ATCC, Manassas, VA, USA), A549 (human lung adenocarcinoma, ATCC, Manassas, VA, USA), MDA-MB-231 (human breast adenocarcinoma derived from metastatic site: pleural effusion, ATCC, Manassas, VA, USA), together with HFF-1 (normal human dermal fibroblasts, ATCC, Manassas, VA, USA). The cultured cells were kept at 37 °C and 5% CO2.
(§3) Cells were seeded in 96-well plates at 5000/well in 100 μL of medium. After 24 h of incubation, the medium was replaced with a new one with the addition of the test substance. After 72 h, the following tests were performed: with crystal violet (determination of the number of adherent cells in the culture), the WST-1 test (determination of the relative number of living cells and their metabolic activity), and the LDH test (determination of the relative number of dead cells in cultures—cytotoxicity of the tested substance).
(§4) WST-1 test: The WST-1 test (Roche Diagnostics, Mannheim, Germany) allows one to determine the relative number of cells in cultures. Absorbance is directly proportional to the number of cells and their metabolic activity. The absorbance measurement is performed at λ = 450 nm (reference wave 600 nm).

The test system of test [3] is HFF-1 (normal human dermal fibroblasts). As to the kind of experiment: WST-1 cell viability assay, normal HFF-1. It counts as cell-based. Conditions: HFF-1, WST-1, 72 h exposure, ± SD, n = 6. The protocol:
as §1, §2, §3, §4

In brackets after ≈: the same amount, converted by molar mass.

Take `C#CCNS(=O)(=O)c1ccc(O)c2ncccc12` [3a, 8-Hydroxy-N-(prop-2-yn-1-yl)quinoline-5-sulfonamide]: in the test with S. aureus ATCC 29213, the “S. aureus Respiration Inhibition” value came out at 92.5%, the “Conc.: lowest multiple of MIC with at least 70% inhibition of respiratory activity” value was 1× MIC (1× MBC) and the “Conc.: the same concentration as multiple of MBC” value (shortened to “Conc.: the same concentration”) was 1× MIC (1× MBC). For the same molecule, the lowest concentration to inhibit growth in test [1] (MIC) was 977 µM (≈ 256 µg/mL). Further, in test [2], 23.3 ± 1.2 µM corresponded to half-maximal inhibition (IC50). The IC50 (as a rule, the concentration needed to halve the response being measured) in test [3] is above 100 µM.

In the case of `C#CC(C)(C)NS(=O)(=O)c1ccc(O)c2ncccc12` [3b, 8-Hydroxy-N-(1,1-dimethylprop-2-yn-1-yl)quinoline-5-sulfonamide], in the test on S. aureus ATCC 29213, the “S. aureus Respiration Inhibition” value worked out at 94.4%, the “Conc.: lowest multiple of MIC with at least 70% inhibition of respiratory activity” value is 2× MIC (2× MBC) and the “Conc.: the same concentration” value is listed as 2× MIC (2× MBC). For the same molecule, the MIC (in general, the least concentration at which growth counts as inhibited) in test [1] came to 883 µM (≈ 256 µg/mL). Further, the IC50 in test [2] is 55.8 ± 1.9 µM. This molecule yielded an IC50 in test [3] above 100 µM.

Take `C#CCN(C)S(=O)(=O)c1ccc(O)c2ncccc12` [3c, 8-Hydroxy-N-methyl-N-(prop-2-yn-1-yl)quinoline-5-sulfonamide]: in the test with S. aureus ATCC 29213, the “S. aureus Respiration Inhibition” value is 95.2%, the “Conc.: lowest multiple of MIC with at least 70% inhibition of respiratory activity” value was 2× MIC (2× MBC) and the “Conc.: the same concentration” value is recorded as 2× MIC (2× MBC). Besides, in test [1], 464 µM (≈ 128 µg/mL) was the least that counted as inhibitory (MIC). Also, the IC50 in test [2] was found to be 2.2 ± 0.1 µM. Also, the IC50 in test [3] is above 100 µM.

As for `C#CCOc1ccc(NS(=O)(=O)c2ccc(O)c3ncccc23)cc1` [3d, 8-Hydroxy-N-[4-(prop-2-yn-1-yloxy)phenyl]quinoline-5-sulfonamide], in the test on S. aureus ATCC 29213, the “S. aureus Respiration Inhibition” value is 73.0%, the “Conc.: lowest multiple of MIC with at least 70% inhibition of respiratory activity” value is on record as 1× MIC (1× MBC) and the “Conc.: the same concentration” value was 1× MIC (1× MBC). In addition, inhibition of growth in test [1] (MIC) required 362 µM (≈ 128 µg/mL). This molecule also yielded an IC50 in test [2] of 45.3 ± 5.4 µM. Moreover, the IC50 in test [3] was above 100 µM.

For the molecule `C#CCOc1cccc(NS(=O)(=O)c2ccc(O)c3ncccc23)c1` [3e, 8-Hydroxy-N-[3-(prop-2-yn-1-yloxy)phenyl]quinoline-5-sulfonamide], in the test on S. aureus ATCC 29213, the “S. aureus Respiration Inhibition” value turned out to be 73.7%, the “Conc.: lowest multiple of MIC with at least 70% inhibition of respiratory activity” value is 1× MIC (1× MBC) and the “Conc.: the same concentration” value is listed as 1× MIC (1× MBC). Besides, inhibition of growth in test [1] (MIC) required 362 µM (≈ 128 µg/mL). The IC50 in test [2] worked out at 15.2 ± 0.8 µM. Moreover, in test [3], the IC50 was above 100 µM.

As for `C#CCOc1ccccc1NS(=O)(=O)c1ccc(O)c2ncccc12` [3f, 8-Hydroxy-N-[2-(prop-2-yn-1-yloxy)phenyl]quinoline-5-sulfonamide], in the test with S. aureus ATCC 29213, the “S. aureus Respiration Inhibition” value was 81.6%, the “Conc.: lowest multiple of MIC with at least 70% inhibition of respiratory activity” value is on record as 1× MIC (1× MBC) and the “Conc.: the same concentration” value is recorded as 1× MIC (1× MBC). The same molecule gave an MIC in test [1] of 362 µM (≈ 128 µg/mL). This molecule also yielded an IC50 in test [2] of 14.7 ± 1.2 µM. This molecule also returned an IC50 in test [3] of 28.1 ± 2.2 µM.
